From patent publication US12187717B2, “Compound and use thereof in treating autoimmune diseases” (PARENCHYMA BIOTECH INC., priority 2022, dated 2025)

Key:
[1] = system: CYP1A1; test: Induction of CYP1A1 mRNA expression in HepG2 (real-time PCR); assay type: cell-based, Human; settings: HepG2, 1 μM, 24 hours, vs control (vehicle)
Experimental: In order to confirm target specificity of the compounds of an embodiment of the present invention prepared as above, it was confirmed whether the expression levels of CYP1A1 mRNA and CYP1A1 protein, which are AHR target genes, were increased.
After recovering HepG2 under culture in DMEM-fetal bovine serum (FBS) 10% medium and then confirming that the survival rate is 97% or more through trypan blue staining, the recovered product was centrifuged at a speed of 1200 rpm for 5 minutes at room temperature, and the cells were prepared by resuspending them in DMEM-fetal calf serum 10% medium at 3×10^5 cells/ml. Thereafter, the cells were dispensed onto a 60 mm dish by 3 ml, and each dish was treated with 50 μl of Compounds 6, 21, 32 and 39 at a concentration of 1 μM diluted in DMEM medium, and then cultured in a cell incubator (5% CO2 incubator) for 24 hours. As a control, 50 μl of 0.05% dimethylsulfoxide (DMSO)/DMEM medium was used for treatment.
The cultured cells were recovered to prepare an mRNA sample. […] From the separated RNA, cDNA was synthesized by reverse transcription, and the expression of CYP1A1 was confirmed through a real-time polymerase chain reaction (PCR) using iQ SYBR-Green Supermix (Bio-rad) in a CFX96 (Bio-rad) detection system. […] Herein, one (1) fold was set using the control.
The real-time polymerase chain reaction was performed under the conditions of 45 cycles at an annealing temperature of 58° C., wherein the following primer sequences were used.

[2] = system: graft-versus-host disease; test: Graft-versus-host disease model (B6->BDF1); assay type: in vivo, BDF1 mice; settings: 10 mg/kg oral daily, 3rd to 14th days
Experimental: The spleen of C57BL/6 mice (8 to 12 weeks old, female, 18±3 g) was excised, pulverized by adding RPMI medium, and then passed through a 40 μm cell strainer (BD Falcon), thereby obtaining a single cell suspension. The single cell suspension was centrifuged (1200 rpm, 5 minutes), and after discarding the supematant, 1 ml of ACK (ammonium chloride/potassium bicarbonate) lysis buffer (0.15 M NH4Cl, 1 mM KHCO3, 0.1 mM Na2 EDTA) was added, followed by stirring for 1 minute and then washing the same with RPMI medium. After centrifugation, the cell suspension was reacted on mouse CD90.2 microbeads (Miltenyi Biotec, Cat No. 130-121-278) at 4° C. for 20 minutes. After complementation of the reaction, the cell suspension was centrifuged, washed with 10 ml of autoMACS® Running Buffer (Miltenyi Biotec, Cat No. 130-091-221), and then resuspended with 3 ml of autoMACS® Running Buffer. Then, CD90.2^+ T cells were obtained from the cell suspension using Auto MACS pro (Miltenyi Biotec) (positive selection). […]
The graft-versus-host disease severity index was evaluated at an interval of 3 to 4 days by visual observation in a severity index system that was classified into a total of 10 points with 0 to 2 points for each item of weight reduction, hair condition, posture, activity and skin change.

[3] = target: CYP2C19 (Homo sapiens, UniProt P33261); test: CYP isoenzyme activity; assay type: in vitro ADME; settings: 10 μM
Chain of CYP2C19 (P33261 whole entry): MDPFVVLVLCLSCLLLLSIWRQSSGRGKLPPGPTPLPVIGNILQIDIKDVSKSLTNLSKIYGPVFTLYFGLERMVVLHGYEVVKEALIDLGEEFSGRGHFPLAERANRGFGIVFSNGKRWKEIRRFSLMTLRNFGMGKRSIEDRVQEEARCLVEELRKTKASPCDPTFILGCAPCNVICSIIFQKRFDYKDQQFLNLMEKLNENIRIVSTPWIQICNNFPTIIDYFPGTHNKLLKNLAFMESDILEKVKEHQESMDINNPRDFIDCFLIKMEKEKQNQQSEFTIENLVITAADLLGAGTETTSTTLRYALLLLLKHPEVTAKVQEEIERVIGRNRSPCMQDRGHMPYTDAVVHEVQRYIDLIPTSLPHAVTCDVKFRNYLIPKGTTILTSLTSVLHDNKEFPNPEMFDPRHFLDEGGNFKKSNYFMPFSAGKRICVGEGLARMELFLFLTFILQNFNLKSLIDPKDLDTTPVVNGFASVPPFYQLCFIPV

CYP1A1 mRNA expression level [1]: significantly induced
CYP2C19 activity [3]: 93.1 % of Control Activity
inhibition of the enzyme activity of CYP2C19 [3]: little effect
SMILES: O=C(Cc1c[nH]c2ccc(Cl)cc12)Nc1nc2ccc(N3CCOCC3)cc2s1 [Compound 6, 2-(5-chloro-1H-indol-3-yl)-N-(6-morpholinobenzo[d]thiazol-2-yl)acetamide]
colon tissue inflammatory pathology index [2]: significantly decreased
severity index of graft-versus-host disease ([2]; total of 10 points, solvent control 8±1): 2.2±1.2
